Experimental data reported in ChEMBL document CHEMBL5518219, “Development of a Series of Pyrrolopyridone MAT2A Inhibitors” (J Med Chem, 2024).
Values after ≈ are worked out from the molar mass of the structure shown. Blank lines part the entries; values can stand above or below the compound they belong to. Active and inactive are the calls of the source. The rule behind the calls is not given here.

What was measured:
[1] = Solubility in FaSSIF at pH 6.5; assay type: ADME
[2] = Intrinsic clearance in mouse hepatocytes measured per 10^6 cells; assay type: ADME, cell-based, Hepatocyte; conditions: read-out: CLH
[3] = Half life in rat at 1 mg/kg, po or 0.5 mg/kg, iv; assay type: ADME, organism-based; conditions: in vivo
[4] = Plasma protein binding in dog assessed as free fraction by equilibrium dialysis; assay type: ADME, cell-free, Canis lupus familiaris
HCT116-MTAP null = test: Antitumor activity against human HCT116-MTAP null cells xenografted in NCR nude mouse assessed as reduction in tumor volume at 20 mg/kg, po administered twice daily for 24 days and measured twice weekly; assay type: functional, organism-based; conditions: time 24.0 day
animal or person [5] = conditions: Mus musculus, NCR nude, HCT116-MTAP null, po, read-out: INH
cells = conditions: Homo sapiens, HCT116-MTAP null, 120 h, read-out: pGI50 (converted)
[6] = Plasma protein binding in rat assessed as free fraction by equilibrium dialysis; assay type: ADME, cell-free
[7] = Plasma protein binding in human assessed as free fraction by equilibrium dialysis; assay type: ADME, cell-free
[8] = Unbound brain-to-plasma concentration ratio in rat; assay type: ADME, cell-free; conditions: read-out: K(p,uu,brain)
[9] = Lipophilicity, logD of compound at pH 7.4 by shake flask method; assay type: physicochemical; conditions: buffer
[10] = Oral bioavailability in rat at 1 mg/kg; assay type: ADME, organism-based; conditions: in vivo
[11] = Solubility in FeSSIF at pH 5; assay type: ADME
[12] = Half life in mouse at 1 mg/kg, po or 0.5 mg/kg, iv; assay type: ADME, organism-based; conditions: in vivo
[13] = Oral bioavailability in mouse at 1 mg/kg; assay type: ADME, organism-based; conditions: in vivo
[14] = Unbound fraction in nude mouse plasma at 30 mg/kg, po measured after 24 hrs; assay type: ADME, organism-based
[15] = Aqueous solubility in phosphate buffer at pH 7.4 measured after 24 hrs; assay type: physicochemical
[16] = Apparent permeability in human Caco-2 cells at 10 uM; assay type: ADME, cell-based
[17] = Metabolic stability in rat hepatocytes assessed as intrinsic clearance measured per 10^6 cells; assay type: ADME, cell-based, Hepatocyte
[18] = Volume of distribution at steady state in rat at 1 mg/kg, po or 0.5 mg/kg, iv; assay type: ADME, organism-based; conditions: in vivo
[19] = Plasma protein binding in mouse assessed as free fraction by equilibrium dialysis; assay type: ADME, cell-free
animal or person [20] = conditions: Mus musculus, NCR nude, HCT116-MTAP null, po, read-out: INH; remark: listed apart in the source
[21] = Solubility in simulated gastric fluid at pH 1; assay type: ADME
NCI-H441 = test: Antiproliferative activity against human NCI-H441 cells harboring MTAP knockout; assay type: functional, cell-based
[22] = Volume of distribution at steady state in mouse at 1 mg/kg, po or 0.5 mg/kg, iv; assay type: ADME, organism-based; conditions: in vivo
[23] = Metabolic stability in human liver microsomes assessed as intrinsic clearance; assay type: ADME, Microsome
HCT-116 = test: cells; conditions: Homo sapiens, HCT-116, 120 h, read-out: pGI50 (converted)
PXR = molecular target: T1, PXR (Homo sapiens, UniProt O75469); test: Activation of human PXR assessed as fold change at 10 uM relative to DMSO; assay type: toxicity; conditions: read-out: FC
T1 sequence (O75469 whole entry): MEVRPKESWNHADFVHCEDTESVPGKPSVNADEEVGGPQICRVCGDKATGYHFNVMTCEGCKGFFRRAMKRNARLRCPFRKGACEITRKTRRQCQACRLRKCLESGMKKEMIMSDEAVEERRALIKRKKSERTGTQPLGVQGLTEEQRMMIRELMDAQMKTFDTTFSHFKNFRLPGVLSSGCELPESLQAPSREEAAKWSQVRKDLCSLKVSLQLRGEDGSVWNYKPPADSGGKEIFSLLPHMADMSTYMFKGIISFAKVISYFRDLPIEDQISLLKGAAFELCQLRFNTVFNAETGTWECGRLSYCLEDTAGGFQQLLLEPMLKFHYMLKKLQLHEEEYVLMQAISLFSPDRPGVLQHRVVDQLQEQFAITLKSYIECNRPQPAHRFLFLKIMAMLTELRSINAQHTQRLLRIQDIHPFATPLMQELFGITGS

[24] = molecular target: S-adenosylmethionine synthase isoform type-2 (Homo sapiens, UniProt P31153); test: Binding affinity to MAT2a (unknown origin) assessed as dissociation constant by ITC analysis
Sequence of S-adenosylmethionine synthase isoform type-2 (P31153 whole entry, canonical isoform): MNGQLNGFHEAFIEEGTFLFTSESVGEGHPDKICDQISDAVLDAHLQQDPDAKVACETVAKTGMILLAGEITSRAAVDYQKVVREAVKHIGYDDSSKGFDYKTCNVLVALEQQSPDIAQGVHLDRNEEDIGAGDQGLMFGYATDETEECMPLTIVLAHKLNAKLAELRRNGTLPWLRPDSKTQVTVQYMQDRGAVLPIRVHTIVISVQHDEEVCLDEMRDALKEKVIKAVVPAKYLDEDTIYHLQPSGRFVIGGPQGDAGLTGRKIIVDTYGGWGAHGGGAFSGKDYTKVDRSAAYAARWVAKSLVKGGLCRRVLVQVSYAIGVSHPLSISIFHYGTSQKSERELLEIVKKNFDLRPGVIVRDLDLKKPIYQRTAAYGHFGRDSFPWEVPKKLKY

Structure (SMILES): Cn1cc2cc(-c3cc4[nH]nc(C5CC5)c4n(-c4ccc(OC(F)F)cc4)c3=O)ccc2n1
- solubility [1]: 3.3 µM (≈ 1.48 µg/mL)
- hepatocyte CLint [2]: 1.4 µL/min/1e6 cells
- half-life [3]: 6.3 h
- fraction unbound [4]: 0.12
- Activity (HCT116-MTAP null): Active
- inhibition in vivo at 20 mg/kg (animal or person [5]): > 90%
- GI50 (cells): 79.4 nM
- fraction unbound [6]: 0.006
- fraction unbound [7]: 0.032
- Kp uu [8]: 0.03
- logD [9]: 3.4
- bioavailability [10]: 100%
- solubility [11]: 11.2 µM (≈ 5.01 µg/mL)
- half-life [12]: 3 h
- bioavailability [13]: 100%
- fraction unbound at 24 h [14]: 0.029
- solubility at 24 h [15]: 3.2 µM (≈ 1.43 µg/mL)
- Papp at 10 µM [16]: 9.4 ×10⁻⁶ cm/s
- hepatocyte CLint [17]: < 1 µL/min/1e6 cells
- Vdss [18]: 0.8 L/kg
- fraction unbound [19]: 0.03
- inhibition in vivo at 20 mg/kg (animal or person [20]): > 90%
- solubility [21]: 70.4 µM (≈ 31.5 µg/mL)
- Activity (NCI-H441): Active
- Vdss [22]: 5.5 L/kg

Structure (SMILES): Cn1cc2cc(-c3cc4[nH]nc(C5CC5)c4n(-c4ccc(OC(F)F)cn4)c3=O)ccc2n1
- logD [9]: 2.5
- hepatocyte CLint [17]: 2 µL/min/1e6 cells

Structure (SMILES): COc1ccc(-c2nccc3[nH]nc(C4CC4)c23)cc1
- logD [9]: 3.3
- microsomal CLint [23]: 89 µL/min/mg
- hepatocyte CLint [17]: 38 µL/min/1e6 cells

Structure (SMILES): COc1ccc(-c2cc3[nH]nc(C4CC4)c3c(-c3ccc(OC(F)F)cc3)n2)cc1
- logD [9]: > 4.5
- microsomal CLint [23]: 21 µL/min/mg
- hepatocyte CLint [17]: 26 µL/min/1e6 cells

Structure (SMILES): Cn1cc(-c2cc3[nH]nc(C4CC4)c3n(-c3ccc(OC(F)F)cc3)c2=O)ccc1=O
- logD [9]: 2
- hepatocyte CLint [17]: < 1 µL/min/1e6 cells

Structure (SMILES): Cc1nc2ccc(-c3cc4[nH]nc(C5CC5)c4n(-c4ccc(OC(F)F)cc4)c3=O)cc2n1C
- logD [9]: 3.5
- hepatocyte CLint [17]: < 2 µL/min/1e6 cells

Structure (SMILES): [O-][n+]1ccc2[nH]nc(C3CC3)c2c1-c1ccc(OC(F)F)cc1
- logD [9]: 1.6
- microsomal CLint [23]: < 3 µL/min/mg
- hepatocyte CLint [17]: < 1 µL/min/1e6 cells

Structure (SMILES): O=c1c(-c2ccccc2)cc2[nH]nc(C3CC3)c2n1-c1ccc(OC(F)F)cc1
- logD [9]: 4
- hepatocyte CLint [17]: 14 µL/min/1e6 cells

Structure (SMILES): COc1ccc(-c2cc3[nH]nc(C4CC4)c3n(-c3ccc(OC(F)F)cc3)c2=O)cn1
- logD [9]: 3.5
- hepatocyte CLint [17]: 3 µL/min/1e6 cells

Structure (SMILES): COc1ccc(-c2c(Nc3ccccn3)[nH]c3c(C4=CCCCC4)c(-c4ccccc4)nn3c2=O)cc1
- GI50 (cells): 501 nM
- GI50 (HCT-116): 1580 nM

Structure (SMILES): O=c1c(-c2ccc(O)cc2)cc2[nH]nc(C3CC3)c2n1-c1ccc(OC(F)F)cc1
- logD [9]: 3.4
- hepatocyte CLint [17]: 2 µL/min/1e6 cells

Structure (SMILES): COc1ccc(-c2cc3[nH]nc(C4CC4)c3n(-c3ccc(OC(F)F)cc3)c2=O)cc1
- logD [9]: 4
- hepatocyte CLint [17]: 7 µL/min/1e6 cells

Structure (SMILES): Cn1nnc2ccc(-c3cc4[nH]nc(C5CC5)c4n(-c4ccc(OC(F)F)cc4)c3=O)cc21
- logD [9]: 3.1
- hepatocyte CLint [17]: < 1 µL/min/1e6 cells

Structure (SMILES): COc1ccc(-c2cc3[nH]nc(C4CC4)c3n(-c3ccc(OC(F)F)cc3)c2=O)nc1
- logD [9]: 3.4
- hepatocyte CLint [17]: 7 µL/min/1e6 cells

Structure (SMILES): COc1ccc(-c2c3c(C4CC4)n[nH]c3cc[n+]2[O-])cc1
- logD [9]: 1.3
- microsomal CLint [23]: < 3 µL/min/mg
- hepatocyte CLint [17]: < 1 µL/min/1e6 cells

Structure (SMILES): Cn1cc2cc(-c3cc4[nH]nc([C@@H]5CCOC5)c4n(-c4ccc(OC(F)F)cc4)c3=O)ccc2n1
- logD [9]: 2.5
- hepatocyte CLint [17]: 4 µL/min/1e6 cells

Structure (SMILES): FC(F)Oc1ccc(-c2nccc3[nH]nc(C4CC4)c23)cc1
- logD [9]: 3.8
- microsomal CLint [23]: 54 µL/min/mg
- hepatocyte CLint [17]: 20 µL/min/1e6 cells

Structure (SMILES): N#Cc1cc2[nH]nc(C3CC3)c2c(-c2ccc(OC(F)F)cc2)n1
- logD [9]: 3.9
- microsomal CLint [23]: < 3 µL/min/mg
- hepatocyte CLint [17]: 5 µL/min/1e6 cells

Structure (SMILES): O=c1ccc2[nH]nc(C3CC3)c2n1-c1ccc(OC(F)F)cc1
- logD [9]: 2.1
- microsomal CLint [23]: < 3 µL/min/mg
- hepatocyte CLint [17]: 1 µL/min/1e6 cells

Structure (SMILES): Cc1n[nH]c2cc(-c3ccc4nn(C)cc4c3)c(=O)n(-c3ccc(OC(F)F)cc3)c12
- logD [9]: 3
- hepatocyte CLint [17]: < 1 µL/min/1e6 cells

Structure (SMILES): CCc1n[nH]c2cc(-c3ccc4nn(C)cc4c3)c(=O)n(-c3ccc(OC(F)F)cc3)c12
- logD [9]: 3.1
- hepatocyte CLint [17]: < 1 µL/min/1e6 cells

Structure (SMILES): Cn1cc2ccc(-c3cc4[nH]nc(C5CC5)c4n(-c4ccc(OC(F)F)cc4)c3=O)cc2n1
- logD [9]: 3.4
- hepatocyte CLint [17]: 25 µL/min/1e6 cells

Structure (SMILES): COc1ccc(-n2cc3cnc(NCC(F)(F)F)nc3c(-c3ccc(Br)cc3)c2=O)cc1
- fold induction at 10 µM (PXR): 25

Structure (SMILES): CN(C)CCc1nnc2cc(-c3ccccc3)c3cc(Cl)ccc3n12
- Kd [24]: 170 nM

Further lines, results first:

- logD [9]: 2.2
- hepatocyte CLint [17]: 35 µL/min/1e6 cells
Structure (SMILES): Cn1cc2cc(-c3cc4[nH]nc(C5CC5)c4n(-c4ccc(CO)cc4)c3=O)ccc2n1

- logD [9]: 2.3
- hepatocyte CLint [17]: 4 µL/min/1e6 cells
Structure (SMILES): Cn1cc2cc(-c3cc4[nH]nc(C5CC5)c4n(-c4ccc(CCO)cc4)c3=O)ccc2n1

- logD [9]: 2.2
- hepatocyte CLint [17]: < 1 µL/min/1e6 cells
Structure (SMILES): Cc1ccc(-n2c(=O)c(-c3ccc4nn(C)cc4c3)cc3[nH]nc(C4CC4)c32)cn1

- logD [9]: 1.6
- hepatocyte CLint [17]: < 1 µL/min/1e6 cells
Structure (SMILES): Cc1ncc(-n2c(=O)c(-c3ccc4nn(C)cc4c3)cc3[nH]nc(C4CC4)c32)cn1

- logD [9]: 3.4
- hepatocyte CLint [17]: 5 µL/min/1e6 cells
Structure (SMILES): Cn1cc2cc(-c3cc4[nH]nc(C5CC5)c4n(-c4ccc(Cl)cc4)c3=O)ccc2n1

- logD [9]: 3.3
- hepatocyte CLint [17]: 25 µL/min/1e6 cells
Structure (SMILES): Cc1ccc(-n2c(=O)c(-c3ccc4nn(C)cc4c3)cc3[nH]nc(C4CC4)c32)cc1

- logD [9]: 2.4
- hepatocyte CLint [17]: 19 µL/min/1e6 cells
Structure (SMILES): CCc1ccc(-n2c(=O)c(-c3ccc4nn(C)cc4c3)cc3[nH]nc(C4CC4)c32)cn1

- logD [9]: 2.8
- hepatocyte CLint [17]: 3 µL/min/1e6 cells
Structure (SMILES): COc1ccc(-n2c(=O)c(-c3ccc4nn(C)cc4c3)cc3[nH]nc(C4CC4)c32)cc1

- logD [9]: 2.4
- hepatocyte CLint [17]: 5 µL/min/1e6 cells
Structure (SMILES): C[C@@H](O)c1ccc(-n2c(=O)c(-c3ccc4nn(C)cc4c3)cc3[nH]nc(C4CC4)c32)cc1

- logD [9]: 3
- hepatocyte CLint [17]: < 1 µL/min/1e6 cells
Structure (SMILES): Cn1cc2cc(-c3cc4[nH]nc(C5CC5)c4n(-c4ccc(OC(F)F)nc4)c3=O)ccc2n1

- logD [9]: 2.3
- hepatocyte CLint [17]: < 1 µL/min/1e6 cells
Structure (SMILES): CNc1ccc(-n2c(=O)c(-c3ccc4nn(C)cc4c3)cc3[nH]nc(C4CC4)c32)cn1

- logD [9]: 2.2
- hepatocyte CLint [17]: 5 µL/min/1e6 cells
Structure (SMILES): Cc1ccc(-n2c(=O)c(-c3ccc4nn(C)cc4c3)cc3[nH]nc(C4CC4)c32)nc1
